{"source": "patent US20220096450A1", "about": "“Compounds and Methods for Treating or Preventing Heart Failure” (DREXEL UNIVERSITY, priority 2019, published 2022)", "key": {"[1]": {"molecular_target": "T1, mitochondrial CoQ-dependent respiratory complex II (Mus musculus, UniProt Q8K2B3+Q9CQA3+Q9CXV1+Q9CZB0)", "T1 construct": "mouse muscle homogenate preparations that contain disrupted mitochondrial membranes; from tissue; host or cells: mouse muscle homogenate", "T1 sequence (Q8K2B3 43-664)": "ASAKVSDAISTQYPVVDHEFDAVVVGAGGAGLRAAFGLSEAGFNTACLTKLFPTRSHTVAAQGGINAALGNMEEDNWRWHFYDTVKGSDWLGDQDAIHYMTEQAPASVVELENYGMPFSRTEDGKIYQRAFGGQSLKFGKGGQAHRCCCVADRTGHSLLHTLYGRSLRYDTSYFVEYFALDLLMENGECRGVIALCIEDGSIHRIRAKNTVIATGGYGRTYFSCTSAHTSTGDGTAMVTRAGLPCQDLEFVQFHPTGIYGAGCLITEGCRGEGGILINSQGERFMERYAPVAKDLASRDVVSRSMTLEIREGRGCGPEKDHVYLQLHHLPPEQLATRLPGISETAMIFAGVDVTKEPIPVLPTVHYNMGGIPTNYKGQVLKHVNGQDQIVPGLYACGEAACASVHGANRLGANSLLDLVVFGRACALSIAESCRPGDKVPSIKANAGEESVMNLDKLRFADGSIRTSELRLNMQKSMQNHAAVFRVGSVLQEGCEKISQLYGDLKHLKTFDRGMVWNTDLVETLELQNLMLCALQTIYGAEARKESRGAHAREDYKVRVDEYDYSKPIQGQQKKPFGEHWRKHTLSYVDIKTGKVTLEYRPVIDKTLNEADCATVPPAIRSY", "T1 sequence (Q9CQA3 31-282)": "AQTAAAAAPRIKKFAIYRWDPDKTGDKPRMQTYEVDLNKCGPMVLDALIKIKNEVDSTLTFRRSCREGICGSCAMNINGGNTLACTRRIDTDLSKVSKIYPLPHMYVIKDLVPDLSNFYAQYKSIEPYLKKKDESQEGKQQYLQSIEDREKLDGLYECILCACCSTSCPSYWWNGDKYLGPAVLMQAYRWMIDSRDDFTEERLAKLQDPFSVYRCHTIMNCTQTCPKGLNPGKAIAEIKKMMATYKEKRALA", "T1 sequence (Q9CZB0 30-169)": "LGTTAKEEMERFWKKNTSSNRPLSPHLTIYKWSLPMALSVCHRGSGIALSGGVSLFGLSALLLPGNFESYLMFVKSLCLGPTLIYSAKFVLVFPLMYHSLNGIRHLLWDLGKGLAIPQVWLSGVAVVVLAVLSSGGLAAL", "T1 sequence (Q9CXV1 57-159)": "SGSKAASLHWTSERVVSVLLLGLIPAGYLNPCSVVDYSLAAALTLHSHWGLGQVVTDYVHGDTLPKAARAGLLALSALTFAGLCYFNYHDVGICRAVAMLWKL", "assay": "Biochemical selectivity assay, respiratory complex II", "conditions": "highest concentration tested 11 μM", "procedure": "(§1) Inhibitor selectivity was assessed using mouse muscle homogenate preparations that contain disrupted mitochondrial membranes, a feature that makes substrates accessible to each of the membrane-bound respiratory complexes. Spectrophotometric assays for each complex are conducted in the presence or absence of a target-specific inhibitor (FIG. 9) to correct for nonspecific substrate oxidation, as previously described (Spinazzi et al., 2012, Nature Protocols 7: 1235-1246). Thus, the activity of complex I is determined by monitoring the oxidation of NADH in the absence or presence of rotenone. Complex III activity is measured based on the rate of cytochrome C reduction observed in the presence or absence of antimycin A. The reaction catalyzed by complex II produces decylubiquinol (decylCoQH2), which rapidly reduces DCIP. The activity of complex III is determined by monitoring DCIP reduction in the presence and absence of 2-thenoyltrifluoroacetone (TTFA)."}, "[2]": {"test_system": "mitochondrial CoQ-dependent respiratory complex III", "assay": "Biochemical selectivity assay, respiratory complex III", "parameters": "species or system mouse", "conditions": "highest concentration tested 11 μM", "procedure": "as §1, with “DCIP.” for “DCIP. The activity of complex III is determined by monitoring DCIP reduction in the presence and absence of 2-thenoyltrifluoroacetone (TTFA).”"}, "H9C2 cells": {"test_system": "H9C2 cells", "assay": "Isoproterenol-induced hypertrophy assay in H9C2 cells", "format": "cell-based, rat", "conditions": "isoproterenol 100 μM 24 h, then 50 μM 24 h; 10.5 μM FC9402", "procedure": "H9C2 cells, a rat ventricular cardiomyoblast cell line were obtained from ATCC (CRL-1446) and maintained in Dulbecco's modified Eagle's medium (DMEM) containing 10% FBS and 1× GlutaMAX. For hypertrophy studies, the cells were plated onto 4-well glass chamber slides precoated with poly-D-lysine. The maintenance medium was aspirated after 24 h and the cells were serum-starved overnight in DMEM containing 1% FBS and 1× GlutaMAX and then incubated for 48 h in fresh serum-starved medium containing isoproterenol, as indicated. […] Images were acquired using a FV3000 Olympus Confocal Microscope and analyzed using ImageJ. Cell surface area was determined by encircling the outer membrane of 30-50 cells per field in 6-10 field images for a total of 500 cells per condition."}, "[3]": {"test_system": "mitochondrial CoQ-dependent respiratory complex I", "assay": "Biochemical selectivity assay, respiratory complex I", "parameters": "species or system mouse", "conditions": "highest concentration tested 11 μM", "procedure": "as §1, with “DCIP.” for “DCIP. The activity of complex III is determined by monitoring DCIP reduction in the presence and absence of 2-thenoyltrifluoroacetone (TTFA).”"}, "[4]": {"assay": "Cell Counting Kit-8 cytotoxicity assay in NVCMs", "format": "cell-based", "conditions": "Sprague-Dawley, rat, rat neonatal ventricular cardiomyocytes (NVCMs)", "from_the_text": "(§2) Rat neonatal ventricular cardiomyocytes (NVCMs) were isolated from the hearts of 1-2 day old Sprague-Dawley rats (Charles River) in 50-90% yield (70-95% viability) by following the protocol described by Golden et al. (Golden et al., 2012, in Cardiovascular Development. Methods in Molecular Biology (Methods and Protocols), vol 843 (Peng, X., Antonyak, M., Eds.) pp 205-214, Springer, Totowa, N.J.).\n(§3) NVCMs are maintained in Dulbecco's modified Eagle's medium (DMEM:F12) containing 20% fetal bovine serum (FBS), 5% horse serum, 1× GlutaMAX, and 2 μg/mL insulin. For hypertrophy studies, cells were plated onto 4-well glass chamber slides, precoated with poly-D-lysine and laminin. The maintenance medium was aspirated after incubation for 72 h. The cells were serum-starved overnight in DMEM:F12 containing 1% FBS, 1× GlutaMAX, and 2 ug/mL insulin and then incubated for 24 h in fresh serum-starved medium containing angiotensin II, as indicated.\nCytotoxicity assays were conducted under the same conditions used for hypertrophy assays with NVCMs or H9C2 cells, as described elsewhere herein."}, "[5]": {"test_system": "rat neonatal ventricular cardiomyocytes (NVCMs)", "assay": "Angiotensin II-induced hypertrophy assay in NVCMs", "format": "cell-based", "conditions": "200 nM Ang II 24 h; 10 μM FC9402", "from_the_text": "as §2\nas §3, with “indicated. […]” for “indicated.”"}}, "data": [{"compound": "COc1nc(-c2ncccc2C)cc(-c2ccc(N)cc2)c1C#N", "note": "[FC9402, 4-(4-aminophenyl)-2-methoxy-6-(3-methylpyridin-2-yl)pyridine-3-carbonitrile]", "values": [{"measurement": "inhibition of respiratory complex II", "setting": "[1]", "result": "did not inhibit"}, {"measurement": "inhibition of respiratory complex III", "setting": "[2]", "result": "did not inhibit"}, {"measurement": "hypertrophic response (cell surface area)", "setting": "H9C2 cells", "result": "mitigates the hypertrophic response"}, {"measurement": "inhibition of respiratory complex I", "setting": "[3]", "result": "did not inhibit"}, {"measurement": "CC50 at 24 h", "setting": "[4]", "result": "27.9 ± 2.6", "unit": "µM"}, {"measurement": "angiotensin II-induced hypertrophy (cell surface area)", "setting": "[5]", "result": "prevents angiotensin II-induced hypertrophy"}]}]}
